Data published in patent US20220347182A1, “METHODS AND COMPOSITIONS FOR THE TREATMENT OF OSTEOARTHRITIS” (The Board of Trustees of the Leland Stanford Junior …, priority 2019, published 2022).
“Also recorded” adds a separate entry of the source.

Experiments:
OA chondrocytes [1] = assay: Human 62-plex Luminex array of secretome after drug treatment; assay type: cell-based; settings: for CCL2 secretion / CCL7 secretion: 48 hours vs DMSO/control, 50 μM JNK Inhibitor II, 25 μM BMS-345541, 50 μM SB 431542, 0.5 mM IBMX, combination compared to JNK inhibitor alone
Procedure: Next, experiments were conducted to explore the functional effects of inhibiting these newly identified Inf-A cells in OA cartilage by capitalizing on their distinct signalling through JNK. Chondrocytes derived from 6 patients were cultured for 48-hours in the presence of JNK II inhibitor and the secretome was analyzed via 62 antibody human Luminex panels. Across all six patients, a variety of cytokines were altered, many trending toward significance. […] CCL2 and 7 are well-established chemoattractants for monocytes and are known to be altered during OA progression (see for example Ref 28). Genetic deletions of CCL2 and its receptor CCR2 prevent the development of surgical OA, further underscoring the importance of CCL2 as a key modulator in pathology (see for example Ref. 28). […] As a complementary approach, SMAD1/5, the other exclusive signaling pathway of the Inf-A cells was inhibited using an ALK inhibitor. ALK receptors are the most common upstream target of SMAD1/5 signaling in OA (See for example Ref. 31).
(§1) OA cells were seeded at high density in 12-well plates and treated with control (DMSO) or drug next day for 48 hours. Drug doses were determined based on prior literature and validation-: 0.5 mM 3-Isobutyl-1-methylxanthine (IBMX, Sigma 15879) (See for example Ref. 33), 50 μM JNK Inhibitor II (Calbiochem 420119), 25 μM NFK-B inhibitor BMS-345541 (Sigma B9935) (See for example Ref 30, 43), 50 μM Alk inhibitor, SB 431542 hydrate (Sigma S4317 (See for example Ref. 44, 45) and 25 uM Kartogenin (Sigma SML0370) (See for example Ref. 24-26) were used with appropriate dilution in DMSO.
Cell culture supernatants were collected and spun down at 10,000×g for 10 min at 4° C. to remove any cells or cell debris and then snap frozen in liquid nitrogen, before performing the assay. This assay was performed in the Human Immune Monitoring Center at Stanford University. Human 62-plex kits were purchased from eBiosciences/Affymetrix and used according to the manufacturer's recommendations with modifications as described below. Briefly, beads were added to a 96-well plate and washed in a Biotek ELx405 washer. Undiluted samples were added to the plate containing the mixed antibody-linked beads and incubated at room temperature for 1 hour followed by overnight incubation at 4° C. with shaking. Cold and room temperature incubation steps were performed on an orbital shaker at 500-600 rpm. Following the overnight incubation plates were washed in a Biotek ELx405 washer and then biotinylated detection antibody added for 75 minutes at room temperature with shaking. Plate was washed as above and streptavidin-PE was added. After incubation for 30 minutes at room temperature wash was performed as above and reading buffer was added to the wells. Each sample was measured in duplicate. Plates were read using a Luminex 200 instrument with a lower bound of 50 beads per sample per cytokine. Custom assay Control beads by Radix Biosolutions were added to all wells.

OA chondrocytes [2] = assay: RT-qPCR gene expression after drug treatment; assay type: cell-based, human; settings: 48 hours; for MMP13 expression: OA patients n=3
Procedure: Cells for RNA extraction were collected in RNA lysis buffer (Zymo Research) and processed according to the manufacturer's specifications for the Quick-RNA MicroPrep Kit (Zymo Research, R1051), including the optional DNAse1 digestion. RNA quality and quantity was measured using the Nanodrop 1000 Spectrophotometer. All samples had A260/280 scores between 1.6-1.8.
[…] of RNA from each sample was reversed transcribed into cDNA using the High Capacity cDNA Reverse Transcription Kit (Applied Biosystems, 4368813). Quantitative PCR was performed using TaqMan gene-specific expression assays, FAM-labeled, for metalloproteinase 3, 9, a 13 (Hs00233962_m1, Hs00957562_m1, Hs00233992_m1), with a universal mastermix (Applied Biosystems, 4369016). Gene expression levels were normalized with FAM-labeled Actin-beta (Hs01060665_g1).
For Tfam, CD24 and PGC1a, we utilized the SybrGreen mastermix (Applied Biosystems, A25742) according to manufacturer's specifications. Primer sequences: Tfam_F: 5′-GCTCAGAACCCAGATGCA AAA-3′, Tfam_R 5′-AGGAAGTTCCCTCCAACGC-3′, PGCla_F: 5′-[…]-3′, PGC1a_R: 5′-[…]-3′, CD24_F: 5′-TACCCACGCAGATTTATT-3′, CD24_R: 5′-AGA GTGAGACCACGAAGA-3′, Actin_F 5′-CACCAACTGGGACGACAT-3′, Actin_R: 5′-ACAGCCTGGATAGCAACG-3′. qPCR reactions included a 2-minute incubation at 50° C. to inactivate previous amplicons with uracil-DNA glycosylase, followed by a 10-minute incubation at 95° C. to activate the Taq polymerase. The amplification cycle, consisting of 15 seconds at 95° C., and 1 minute at 60° C., was repeated 40 times. The relative expression levels were determined using the ΔCt method (CT gene of interest−CT internal control−Actin) and relative gene expression is calculated using 2−ΔCt method and plotted.
as §1

[3] = test system: post-traumatic osteoarthritis (PTOA); assay: Mouse model of post-traumatic osteoarthritis (tibial loading), OARSI histological scoring; assay type: in vivo, wildtype C57BL mice; settings: 50 uM, 8 weeks post-injury vs control; for OA progression: intra-articular, 2 injections every week starting 1 week after tibial loading
Procedure: Using a mouse model of post-traumatic osteoarthritis (PTOA) wherein mechanical loading can lead to onset and progression of OA (Christiansen et al. 2012), Applicant tested if early intervention with small molecule modulators of the Inf A populations can modulate the onset or progression of OA in vivo. For these experiments, wildtype C57BL mice were injected with (a) control or (b) Inf-A inhibitor (JNK II inhibitor) OA initiation to test whether these putative modulations can be therapeutic in OA. The injections were given starting 1 week after tibial loading and at a frequency of 2 injections every week to ensure their efficacy. For histological assessment, the OARSI scoring criteria was utilized to grade the OA severity with the score of 0-6 grades ranging from intact cartilage to erosion and deformation of cartilage/bone. For the quantification of OA development in each control or injured joint, 6 sagittal sections (4 μm thickness) spaced 50 μm are typically cut and stained in order to cover the whole joint compartment. A maximum score for the overall section (both tibial plateau and femoral condyle) is obtained after assigning the most severe damage score for each section and averaging the scores; a summit score (sum of the calculated scores) is calculated as a measure of the prevalent damage over the whole joint.

OA chondrocytes [4] = assay: cyTOF profiling of CPC cluster abundance after kartogenin treatment; assay type: cell-based, human; settings: 25 uM kartogenin vs DMSO, 48 hours
Excerpt: Experiments were undertaken to understand how the application of a pro-regenerative drug would affect this CPC landscape, specifically the pro-inflammatory CPCs four in Group C. Kartogenin (KGN) was originally identified in a screen to expand mesenchymal stem cells and has since been shown in multiple studies to be a pro-chondrogenic modulator of OA progression in animal models (See for example Ref. […]). One patient from Group C (OA15) and one patient from Group A (OA5) were utilized. One patient from Group A (OA5) and one patient from Group C (OA15) were treated with kartogenin or control (DMSO) for 48 hours, fixed, stained and profiled by cyTOF as previously described. […] The treatment additionally expanded low-inflammation clusters 7 and 11 in the Group A patient, where they already appeared overrepresented, while these clusters were not expanded in the Group C patient. Furthermore, kartogenin reduced pro-inflammtory clusters 9, 12 in both the patients, though to a greater degree in the Group C patient enriched in those subtypes (FIG. 3G). Overall, kartogenin appears to expand normal-like and low inflammation CPC clusters (2, 10, 7 and 11) while reducing the high inflammation CPC III clusters (12 and 16).
as §1
OA cells were cultured to confluence in 10 cm dishes. On the collection day, cells were stained with 25 μM Idu for 15 min at 37° C. in the cell incubator, then with 0.5 μM cisplatin for 5 min at RT. Cells were then lifted with 0.25% Trypsin-EDTA (Gibco) for 15 min at 37° C. Trypsin was quenched using media containing 10% FBS and cell were washed 3 times with PBS to remove any trace amounts of trypsin. Cells were fixed after straining through a […] strainer in 1.6% PFA for 10 min at RT. Cells were washed 4 times with cells staining media, counted and frozen in 1 million cell aliquots in a small amount of cell staining media at −80° C. To stain, cells were thawed on ice and barcoded using the Cell-ID 20-plex Pd Barcoding Kit (Fluidigm) according to the manufacturer's specifications. After barcoding, cells were labeled as previously described (See for example Ref 13). Briefly, all barcoded samples were combined into one FACs tube, and washed 3× with cell staining media and stained with the cell surface antibodies for 30 minutes at RT according to the concentrations in Table 2. Cells were then was 2× with cell staining media and permeabilized with 1 mL of cold methanol added dropwise with continuous gentle vortexing. Cells were incubated for 10 min on ice, with gentle vortexing every 2-3 minutes to avoid cell clumping, then washed in cell staining media and stained with the intracellular antibodies for 30 minutes at RT. After 2× washed with cell staining media, cells were resuspended in 1.6% PFA with Cell-ID Intercalator-Ir (Fluidigm) used at 1:2000. Cells were measured using the cyTOF 2 (Fluidigm) and injected using the supersampler. […]

[5] = 48 hours vs DMSO, 50 μM SB 431542, combination compared to JNK inhibition alone

NC(=O)c1ccc(-c2nc(-c3ccc4c(c3)OCO4)c(-c3ccccn3)[nH]2)cc1 [ALK inhibitor, SB 431542 hydrate]
CCL2 secretion (OA chondrocytes [1]): decrease | CCL7 secretion (OA chondrocytes [1]): decrease | CXCL1 secretion (OA chondrocytes [1]; [5]): decrease | CXCL5 secretion (OA chondrocytes [1]; [5]): decrease

Cc1ccc2nc(NCCN)c3ncc(C)n3c2c1 [BMS-345541]
CCL2 secretion (OA chondrocytes [1]): did not affect | CCL7 secretion (OA chondrocytes [1]): did not affect

CC(C)Cn1c(=O)n(C)c(=O)c2[nH]cnc21 [IBMX, 3-Isobutyl-1-methylxanthine]
CCL2 secretion (OA chondrocytes [1]): modest downregulation | CCL7 secretion (OA chondrocytes [1]): modest downregulation | upregulation of CD24 expression (OA chondrocytes [2]; 0.5 mM IBMX): 2-4 fold | MMP13 expression (OA chondrocytes [2]): no consistent effect; also recorded: No significant differences | Pgc1a gene expression (OA chondrocytes [2]; IBMX): increased | Tfam gene expression (OA chondrocytes [2]; IBMX): increased

O=C1c2ccccc2-c2n[nH]c3cccc1c23 [JNK II inhibitor]
CCL2 secretion (OA chondrocytes [1]): significant decrease | CCL7 secretion (OA chondrocytes [1]): significant decrease | CCL2 secretion (OA chondrocytes [1]; listed as INK inhibitor): overall reduction | CCL7 secretion (OA chondrocytes [1]; listed as INK inhibitor): overall reduction | max score (OARSI) [3]: reduced | summit score (OARSI) [3]: reduced | OA progression [3]: slowed | OA progression ([3]; listed as JNKII inhibitor): slows down progression | MMP gene expression (OA chondrocytes [2]): remained unaffected | MMP13 expression (OA chondrocytes [2]): No significant differences

O=C(O)c1ccccc1C(=O)Nc1ccc(-c2ccccc2)cc1 [Kartogenin]
abundance of low-inflammation clusters 7 and 11 (OA chondrocytes [4]; Group A patient (OA5)): expanded | abundance of low-inflammation clusters 7 and 11 (OA chondrocytes [4]; Group C patient (OA15)): not expanded | abundance of pro-inflammatory clusters 9, 12 (OA chondrocytes [4]; both patients): reduced | abundance of cluster 2 (CPC I) and cluster 10 (CPC II) (OA chondrocytes [4]; both patients (OA5 Group A, OA15 Group C)): selectively expanded | abundance of high inflammation CPC III clusters (12 and 16) (OA chondrocytes [4]; overall summary): reducing
